Source: article PMC10574761, “Novel 1,2,3-Triazole-Containing Quinoline–Benzimidazole Hybrids: Synthesis, Antiproliferative Activity, In Silico ADME Predictions, and Docking” (Molecules, 2023)

How the values were obtained:
[1] = test system: MRC-5 (human fetal lung fibroblasts, non-tumor); test: MTT proliferation assay, MRC-5; assay type: cell-based; settings: MRC5, 72 h treatment
Protocol: (§1) The effect of the new synthesized compounds was tested on five human tumor cell lines, HeLa (human cervical adenocarcinoma; from ATCC), CaCo-2 (human colorectal adenocarcinoma), HL-60 (acute promyelocytic leukemia), HuT78 (T-cell lymphoma) and THP-1 (acute monocytic leukemia), and on one non-tumor cell line, MRC-5 (human fetal lung fibroblasts). The MRC-5 cells were used between 24 and 26 passages. The cells were cultured in two different types of media: DMEM (Gibco, EU) and RPMI 1640 (Gibco, EU). Both media were supplemented with 2 mM glutamine, fetal bovine serum (10%; heat inactivated) and antibiotics (100 U penicillin and 0.1 mg streptomycin). RPMI 1640 was additionally supplemented with 10 mM HEPES and 1 mM sodium pyruvate. The cells growing in a monolayer were cultured in DMEM, while the cells growing in suspension were cultured in RPMI 1640. The cells were grown in humidified atmosphere under the conditions of 37 °C/5% CO2 gas in the CO2 incubator (IGO 150 CELLlife^TM, JOUAN, Thermo Fisher Scientific, Waltham, MA, USA).
(§2) Growth-inhibitory activity was assessed using a slightly modified procedure based on the National Cancer Institute’s protocol. Briefly, the cells were seeded in 96-well microtiter plates and incubated for 24 h. They were then treated with 10^−7 to 10^−4 M concentrations of the tested compounds for an additional 72 h. After the treatment period, the effects of the tested compounds on the growth rate of the cells were examined using the MTT assay. Absorbance was measured at 595 nm using a microplate reader. […] The selectivity index was calculated according to the following formula: SI=IC50 value of normal cell line/IC50 value of cancer cell line
(§3) The effect of each concentration was analyzed by plotting the logarithm of the concentration of the evaluated compound against the corresponding percentage inhibition value using least squares.

[2] = test system: HeLa (human cervical adenocarcinoma); test: MTT proliferation assay, HeLa; assay type: cell-based; settings: 72 h treatment
Protocol: as §1, §2, §3

[3] = test system: CaCo-2 (human colorectal adenocarcinoma); test: MTT proliferation assay, CaCo-2; assay type: cell-based; settings: 72 h treatment
Protocol: as §1, §2, §3

[4] = test system: THP-1 (acute monocytic leukemia); test: MTT proliferation assay, THP-1; assay type: cell-based, human; settings: for IC50: Homo sapiens, THP-1, 72 h treatment, MTT
Protocol: as §1, §2, §3

[5] = test system: Hut78 (T-cell lymphoma); test: MTT proliferation assay, HuT78; assay type: cell-based, human; settings: for IC50: Homo sapiens, HuT78, 72 h treatment, MTT
Protocol: as §1, §2, §3

[6] = test system: HL-60 (acute promyelocytic leukemia); test: MTT proliferation assay, HL-60; assay type: cell-based; settings: Homo sapiens, 72 h treatment
Protocol: as §1, §2, §3

[7] = test system: HuT78 cells; test: Cell cycle analysis by flow cytometry (PI staining); assay type: cell-based, human; settings: 24 h, p < 0.05
Protocol: The cells were exposed to the compounds for 24 h, collected, washed with PBS, fixed with 70% ethanol and stored at −20 °C until analysis. On the day of analysis, the cell pellets were washed twice with PBS, resuspended in 1 mg/mL PI and 0.2 mg/mL RNase A and left in a dark/cold atmosphere for 30 min. The stained cells were analyzed using FACSCalibur (Becton Dickinson, Franklin Lakes, NJ, USA) flow cytometer. Tests were performed in duplicate and repeated twice. FlowJo software, version 10.2., was adapted for the analysis of DNA histograms.
[…] 13.5 (TIBCO Software Inc., Tulsa, USA) was used for the statistical analysis of the results. Student’s t test was used for data analysis. Differences were considered statistically significant at p < 0.05.

[8] = SI = IC50 of normal cell line (MRC-5) / IC50 of cancer cell line

IC50 [2]	IC50 [3]	IC50 [4]	IC50 [5]	IC50 [6]	melting point	Structure (SMILES)	IC50 [1]	selectivity index (SI) for THP-1 cells [4, 8]	selectivity index (SI) for HuT78 cells [5, 8]	enrichment of the S fraction compared to control cells ([7]; HuT-78, 0.5 µM)	increase in the aggregation of cells in the subG0/G1 phase ([7]; HuT-78, 5 µM)	increase of the proportion of cells in subG0/G1 phase compared to untreated cells ([7]; HuT-78, 5 µM)
7.53 µM	8.3 µM	0.18 µM	0.2 µM	1.02 µM	85 to 86 °C	COc1ccc2[nH]c(-c3ccc(OCc4cn(-c5ccnc6cc(Cl)ccc56)nn4)cc3)nc2c1 [Compound 9c, 7-chloro-4-(4-{[4-(5-methoxy-1H--benzo[d]imidazol-2-yl)phenoxy]methyl}-1H-1,2,3-triazol-1-yl)quinoline]	2.71 µM	15	13.55	31%		
> 100 µM	> 100 µM	> 100 µM	9.68 µM	93.2 µM		CCCNC(=N)c1ccc2[nH]c(-c3ccc(OCc4cn(-c5ccnc6cc(Cl)ccc56)nn4)c(Br)c3)nc2c1.Cl.Cl.Cl [Compound 10e, 2-(3-bromo-4-{[1-(7-chloroquinolin-4-yl)-1H-1,2,3-triazol-4-yl]methoxy}phenyl)-N-propyl-1H-benzo[d]imidazol-5-carboximidamide trihydrochloride]	> 100 µM				more than threefold	
> 100 µM	> 100 µM	> 100 µM	10.9 µM	> 100 µM	209 to 211 °C	CCCNC(=N)c1ccc2[nH]c(-c3ccc(OCc4cn(CCNc5ccnc6cc(Cl)ccc56)nn4)cc3)nc2c1.Cl.Cl.Cl [Compound 14e, 2-{4-[(1-{2-[(7-chloroquinolin-4-yl)amino]ethyl}-1H-1,2,3-triazol-4-yl)methoxy]phenyl}-N-propyl-1H-benzo[d]imidazol-5-carboximidamide trihydrochloride]	> 100 µM					68%
> 100 µM	> 100 µM	> 100 µM	7.83 µM	> 100 µM	169 to 171 °C	CCCNC(=N)c1ccc2[nH]c(-c3ccc(OCc4cn(CCNc5ccnc6cc(Cl)ccc56)nn4)c(Br)c3)nc2c1.Cl.Cl.Cl [Compound 15e, 2-{3-bromo-4-[(1-{2-[(7-chloroquinolin-4-yl)amino]ethyl}-1H-1,2,3-triazol-4-yl)methoxy]phenyl}-N-propyl-1H-benzo[d]imidazol-5-carboximidamide trihydrochloride]	> 100 µM					36%
